# Data published in patent US9365533B2, “Coumarin derivative” (NIPPON ZOKI PHARMACEUTICAL CO., LTD., priority 2012, dated 2016).
# System: HFLS-OA cells
# Test: Suppressive action to TNF-α-induced proliferation of synovial cells (HFLS-OA), BrdU ELISA
# Assay type: cell-based
# Details: 200 μmol/L test substance; human recombinant TNF-α 10 ng/mL; 5 days; BrdU incorporation increase by TNF-α = 100%
# Method: Evaluation of Suppressive Action to Cell Proliferation of Synovial Cells (HFLS-OA) Derived from Tissues of Human Osteoarthritis
# (1) Incubation of HFLS-OA Cells
# HFLS-OA cells were sown onto a 96-well plate so as to make them 10^4 cells/well/100 μL in a D-MEM containing 2 vol % of fetal bovine serum (FBS) and incubated for 24 hours. A test substance (200 μmol/L) and human recombinant TNF-α (10 ng/mL) were added thereto followed by incubating for 5 days.
# (2) Measurement of Action to HFLS-OA Cell Proliferation
# A kit [Cell Proliferation ELISA, BrdU (colorimetric) (Roche Diagnostics)] was used and measurement was conducted according to the protocol attached to the kit. HFLS-OA cells were incubated for 3 days and 10 μL of 5-bromo-2′-deoxyuridine (BrdU) dissolved in a phosphate buffered saline (PBS) (100 μmol/L, pH 7.4) was added to each well followed by incubating for 48 hours more. After the culture supernatant was removed from each well, 200 μL/well of an immobilization/denaturation solution was added thereto and the mixture was allowed to stand for 30 minutes whereby immobilization of the cells and denaturation of DNA were conducted. After the immobilization/denaturation solution was completely removed, 100 μL of a peroxidase-labeled anti-BrdU antibody solution was added thereto and the mixture was made to react at room temperature for 90 minutes. After washing with PBS, 100 μL of a substrate liquid (tetramethylbenzidine) was added to each well and the absorbance was measured. A cell proliferation rate upon addition of each test substance was calculated where an increase in incorporation of BrdU upon addition of TNF-α was defined as 100% of cell proliferation rate.
row,SMILES,Synovial Cell Proliferation Rate (%)
1,"CS(=O)(=O)Nc1cc2cccc(OS(=O)(=O)c3cccc(Br)c3)c2oc1=O [Compound 39, 3-(Methanesulfonamide)-2-oxochromen-8-yl 3-bromobenzenesulfonate]",−43.0
2,"CS(=O)(=O)Nc1cc2cccc(OS(=O)(=O)c3ccccc3)c2oc1=O [Compound 40, 3-(Methanesulfonamide)-2-oxochromen-8-yl benzene-sulfonate]",−40.5

# Same assay, conditions: Synovial cell, 120 h; 200 μmol/L test substance; human recombinant TNF-α 10 ng/mL; 5 days; BrdU incorporation increase by TNF-α = 100%; read-out: Synovial Cell Proliferation Rate (%)
row,SMILES,activity at 200 µM [%]
1,"Cc1ccc(S(=O)(=O)Nc2cc3cccc(OS(=O)(=O)c4ccc(C)cc4)c3oc2=O)cc1 [Compound 4, 2-Oxo-3-(p-tolylsulfonylamino)chromen-8-yl 4-methyl-benzenesulfonate]",-88.1
2,"O=c1oc2c(OS(=O)(=O)c3cccc(F)c3)cccc2cc1NS(=O)(=O)c1cccc(F)c1 [Compound 11, 3-[(3-Fluorophenyl)sulfonylamino]-2-oxochromen-8-yl 3-fluorobenzenesulfonate]",-90.6
3,"O=c1oc2c(OS(=O)(=O)c3ccc(Cl)cc3)cccc2cc1NS(=O)(=O)c1ccc(Cl)cc1 [Compound 7, 3-[(4-Chlorophenyl)sulfonylamino]-2-oxochromen-8-yl 4-chlorobenzenesulfonate]",-92.5
4,"O=c1oc2c(OS(=O)(=O)c3ccccc3Cl)cccc2cc1NS(=O)(=O)c1ccccc1Cl [Compound 9, 3-[(2-Chlorophenyl)sulfonylamino]-2-oxochromen-8-yl 2-chlorobenzenesulfonate]",-88.8
5,"O=c1oc2c(OS(=O)(=O)c3ccccc3F)cccc2cc1NS(=O)(=O)c1ccccc1F [Compound 12, 3-[(2-Fluorophenyl)sulfonylamino]-2-oxochromen-8-yl 2-fluorobenzenesulfonate]",-91.8
6,"O=c1oc2c(OS(=O)(=O)c3cccc(Cl)c3)cccc2cc1NS(=O)(=O)c1cccc(Cl)c1 [Compound 8, 3-[(3-Chlorophenyl)sulfonylamino]-2-oxochromen-8-yl 3-chlorobenzenesulfonate]",-94.4
7,"N#Cc1ccccc1S(=O)(=O)Nc1cc2cccc(OS(=O)(=O)c3ccccc3C#N)c2oc1=O [Compound 15, 3-[(2-Cyanophenyl)sulfonylamino]-2-oxochromen-8-yl 2-cyanobenzenesulfonate]",-3.3
8,"Cc1ccccc1S(=O)(=O)Nc1cc2cccc(OS(=O)(=O)c3ccccc3C)c2oc1=O [Compound 6, 3-(o-Tolylsulfonylamino)-2-oxochromen-8-yl 2-methyl-benzenesulfonate]",-77.4
9,"Cc1cccc(S(=O)(=O)Nc2cc3cccc(OS(=O)(=O)c4cccc(C)c4)c3oc2=O)c1 [Compound 5, 3-(m-Tolylsulfonylamino)-2-oxochromen-8-yl 3-methyl-benzenesulfonate]",-84.9
10,"COc1cccc(S(=O)(=O)Nc2cc3cccc(OS(=O)(=O)c4cccc(OC)c4)c3oc2=O)c1 [Compound 2, 3-[(3-Methoxyphenyl)sulfonylamino]-2-oxochromen-8-yl 3-methoxybenzenesulfonate]",-52.2
11,"O=c1oc2c(OS(=O)(=O)c3ccc(F)cc3)cccc2cc1NS(=O)(=O)c1ccc(F)cc1 [Compound 10, 3-[(4-Fluorophenyl)sulfonylamino]-2-oxochromen-8-yl 4-fluorobenzenesulfonate]",-34.9
12,"COc1ccccc1S(=O)(=O)Nc1cc2cccc(OS(=O)(=O)c3ccccc3OC)c2oc1=O [Compound 3, 3-[(2-Methoxyphenyl)sulfonylamino]-2-oxochromen-8-yl 2-methoxybenzenesulfonate]",-65.1
